Assay results reported in patent US20240401154A1, “SYNTHESIS AND PREPARATION OF ULTRA-LOW VISCOSITY AND HIGH MAGNETIC SUSCEPTIBILITY MAGNETIC IONIC LIQUIDS” (priority 2023, published 2024).
Where two headings read alike, the source gives them in different places. Marks after values point to notes of the source that are not given here.

How the values were obtained:
[1] = Magnetic properties by SQUID magnetometer; format: physicochemical; conditions: applied magnetic field H=20 kOe; Curie-Weiss fit
Procedure: Magnetic properties were analyzed using a magnetic susceptibility balance (MSB, Sherwood Scientific, Cambridge, UK) and a Quantum Design Superconducting Quantum Interference Device (SQUID) magnetometer (MPMS XL-7). The magnetic properties of transition metal MILs were further studied using a SQUID magnetometer to confirm their paramagnetic nature as well as if any magnetic transition occurs in the samples.
The magnetic properties of transition metal MILs were further studied using a SQUID magnetometer to confirm their paramagnetic nature as well as if any magnetic transition occurs in the samples.
The calculated μeff of 5.21μB for the [Ni(C6-DGE)6][Ni(hfacac)3]2 MIL (FIG. 12A) from SQUID matches quite well with the theoretical μtheo value (5.31μB, TABLE 1) and also with that obtained from MSB measurements (5.48μB).

[2] = SQUID magnetometer; previously studied MILs, Table 2; cited from earlier work
[3] = GC-FID; previously referenced MILs; cited from earlier work
[4] = reported at 23.7° C.; previously studied MILs, Table 2; cited from earlier work
[5] = previously referenced MILs, cited from earlier work
[6] = acetone, chloroform, dichloromethane, acetonitrile, methanol, ethanol, diethyl ether, ethyl acetate, isopropanol at 20% (w/v)
[7] = hexane, heptane, benzene, toluene at 10% (w/v)

| Structure (SMILES) | μeff from SQUID [1] [μB] | Effective magnetic moment [2] | Onset of MIL volatilization (° C.)^1 [3] [°C] | Viscosity [4] | Solubility [5, 6] | Solubility [5, 7] | Solubility ([5]; water at 0.01% (w/v)) |
| --- | --- | --- | --- | --- | --- | --- | --- |
| CCCCCCOC(=O)COCC(=O)OCCCCCC.CCCCCCOC(=O)COCC(=O)OCCCCCC.CCCCCCOC(=O)COCC(=O)OCCCCCC.CCCCCCOC(=O)COCC(=O)OCCCCCC.CCCCCCOC(=O)COCC(=O)OCCCCCC.CCCCCCOC(=O)COCC(=O)OCCCCCC.O=C(C=C([O-])C(F)(F)F)C(F)(F)F.O=C(C=C([O-])C(F)(F)F)C(F)(F)F.O=C(C=C([O-])C(F)(F)F)C(F)(F)F.O=C(C=C([O-])C(F)(F)F)C(F)(F)F.O=C(C=C([O-])C(F)(F)F)C(F)(F)F.O=C(C=C([O-])C(F)(F)F)C(F)(F)F.[Ni+2].[Ni+2].[Ni+2] [MIL 2] | 5.21 | – | – | – | – | – | – |
| CCCCCCOC(=O)COCC(=O)OCCCCCC.CCCCCCOC(=O)COCC(=O)OCCCCCC.CCCCCCOC(=O)COCC(=O)OCCCCCC.CCCCCCOC(=O)COCC(=O)OCCCCCC.CCCCCCOC(=O)COCC(=O)OCCCCCC.CCCCCCOC(=O)COCC(=O)OCCCCCC.O=C(C=C([O-])C(F)(F)F)C(F)(F)F.O=C(C=C([O-])C(F)(F)F)C(F)(F)F.O=C(C=C([O-])C(F)(F)F)C(F)(F)F.O=C(C=C([O-])C(F)(F)F)C(F)(F)F.O=C(C=C([O-])C(F)(F)F)C(F)(F)F.O=C(C=C([O-])C(F)(F)F)C(F)(F)F.[Mn+2].[Mn+2].[Mn+2] [MIL 3] | 8.31 | – | – | – | – | – | – |
| CCCCCCCCCCCCCC[P+](CCCCCC)(CCCCCC)CCCCCC.O=C(C=C([O-])C(F)(F)F)C(F)(F)F.O=C(C=C([O-])C(F)(F)F)C(F)(F)F.O=C(C=C([O-])C(F)(F)F)C(F)(F)F.[Co+2] [[P66614][Co(hfacac)3]] | – | 4.30^f | 130 | 575.8^c | S^b (soluble in acetone, chloroform, dichloromethane, acetonitrile, methanol, ethanol, diethyl ether, ethyl acetate, and isopropanol at 20% (w/v).) | S^a (soluble in hexane, heptane, benzene, and toluene at 10% (w/v).) | S^f (insoluble in water at 0.01% (w/v).) |
| CCCCCCCCCCCCCC[P+](CCCCCC)(CCCCCC)CCCCCC.O=C(C=C([O-])C(F)(F)F)C(F)(F)F.O=C(C=C([O-])C(F)(F)F)C(F)(F)F.O=C(C=C([O-])C(F)(F)F)C(F)(F)F.[Mn+2] [[P66614][Mn(hfacac)3]] | – | 5.80^f | 155 | 401.8^c | S^b (soluble in acetone, chloroform, dichloromethane, acetonitrile, methanol, ethanol, diethyl ether, ethyl acetate, and isopropanol at 20% (w/v).) | S^a (soluble in hexane, heptane, benzene, and toluene at 10% (w/v).) | S^f (insoluble in water at 0.01% (w/v).) |
| CCCCCCCCCCCCCC[P+](CCCCCC)(CCCCCC)CCCCCC.O=C(C=C([O-])C(F)(F)F)C(F)(F)F.O=C(C=C([O-])C(F)(F)F)C(F)(F)F.O=C(C=C([O-])C(F)(F)F)C(F)(F)F.[Ni+2] [[P66614][Ni(hfacac)3]] | – | 2.80^f | 225 | 927.9^c | S^b (soluble in acetone, chloroform, dichloromethane, acetonitrile, methanol, ethanol, diethyl ether, ethyl acetate, and isopropanol at 20% (w/v).) | S^a (soluble in hexane, heptane, benzene, and toluene at 10% (w/v).) | S^f (insoluble in water at 0.01% (w/v).) |
